Target: T1, human CXCR3 (N-delta 4) (Homo sapiens, UniProt P49682)
T1 construct: CD8 leader; Flag tag; expressed in transfected cells; membranes used
T1 sequence (P49682 5-368 limits assumed): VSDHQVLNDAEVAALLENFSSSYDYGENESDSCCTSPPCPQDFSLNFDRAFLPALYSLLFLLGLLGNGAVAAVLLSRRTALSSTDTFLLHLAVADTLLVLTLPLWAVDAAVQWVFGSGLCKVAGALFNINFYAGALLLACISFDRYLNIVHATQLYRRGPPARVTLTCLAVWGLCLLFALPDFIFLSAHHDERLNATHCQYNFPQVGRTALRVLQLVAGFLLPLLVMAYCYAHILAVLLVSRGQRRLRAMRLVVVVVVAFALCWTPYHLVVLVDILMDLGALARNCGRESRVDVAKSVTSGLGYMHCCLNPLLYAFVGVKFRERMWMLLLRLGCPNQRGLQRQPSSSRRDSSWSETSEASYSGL
Experiment: Human CXCR3 (N-delta 4) scintillation proximity assay (SPA), [125I] IP-10 binding
Details: IC50 rating; Ba/F3-hCXCR3 (N-delta 4) membranes, 25 pM [125I] IP-10
In short: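 Membranes from mouse Ba/F3 pro-B cells stably expressing Flag-tagged human CXCR3 (N-delta 4) were coupled to SPA beads. IP-10 was added together with titrated compounds to start the reaction, and bound radioligand was read by scintillation proximity.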

IC50 [nM]	Structure (SMILES)
> 100	O=C(NCc1ccccc1)c1cnc(N2CCN(C3CCN(Cc4ccc(F)cc4)CC3)CC2)c(Cl)c1 [compound 5]
> 100	O=C(NCc1cc(Cl)cc(Cl)c1)c1cnc(N2CCN(C3CCN(Cc4ccc(F)cc4)CC3)CC2)c(Cl)c1 [compound 77]
25 to 100	CC[C@H]1CN(c2ncc(C(N)=O)cc2Cl)CCN1C1CCN(Cc2ccc(Cl)cc2N2CCOC2=O)CC1 [compound 460]
< 25	C[C@H]1CN(c2ncc(C(=O)NCc3ccc(Cl)c(Cl)c3)cc2Cl)CCN1C1CCN(C(=O)c2ccc(C#N)cc2)CC1 [compound 266]
25 to 100	O=C(NCc1ccc(Cl)c(Cl)c1)c1cnc(N2CCN(C3CCN(Cc4ccc(Cl)cc4)CC3)CC2)c(Br)c1 [compound 279]
< 25	CC[C@H]1CN(c2ncc(CO)cc2Cl)CCN1C1CCN(Cc2ccc(Cl)cc2F)CC1 [compound 392]
25 to 100	CCNC(=O)c1cnc(N2CCN(C3CCN(C(=O)c4ccc(Cl)cc4)CC3)C(CC(F)(F)F)C2)c(Cl)c1 (stereo not shown) [compound 309]
> 100	CCNC(=O)OC(C)c1cnc(N2CCN(C3CCN(Cc4ccc(Cl)cc4F)CC3)[C@@H](CC)C2)c(Cl)c1 (stereo partly shown) [compound 434]
25 to 100	CC[C@H]1CN(c2ncc(C(=O)NC)cc2Cl)CCN1C1CCN(C(=O)c2ccc(C#N)cc2)CC1 [compound 303]
> 100	CC[C@H]1CN(c2ncc(C(=O)N=C(N)N)cc2Cl)CCN1C1CCN(Cc2ccc(Br)cc2F)CC1 [compound 350]
> 100	CC[C@H]1CN(c2c(Cl)cc(C(=O)OC)c[n+]2[O-])CCN1C1CCN(Cc2ccc(Cl)cc2F)CC1 [compound 438]
< 25	CNC(=O)c1cnc(N2CCN(C3CCN(Cc4ccc(Cl)cc4)CC3)[C@@H](C)C2)c(Br)c1 [compound 237]
> 100	CCNC(=O)c1cnc(N2CCN(C3CCN([C@H](CC)c4ccc(Cl)cc4)CC3)[C@@H](C)C2)c(Cl)c1 [compound 330]
25 to 100	O=C(NCc1ccc(F)c(Cl)c1)c1cnc(N2CCN(C3CCN(Cc4ccc(Cl)c(F)c4)CC3)CC2)c(Cl)c1 [compound 156]
25 to 100	O=C(NCCOc1ccccc1)c1cnc(N2CCN(C3CCN(Cc4ccc(Br)cc4)CC3)CC2)c(Br)c1 [compound 290]
< 25	O=C(NCc1ccc(F)c(F)c1)c1cnc(N2CCN(C3CCN(Cc4ccc(Cl)cc4)CC3)CC2)c(I)c1 [compound 182]
> 100	O=C(NCc1ccc(F)c(F)c1)c1cnc(N2CCN(C3CCN(CCOc4ccc(F)cc4)CC3)CC2)c(Cl)c1 [compound 346]
> 100	O=C(NCc1ccc(F)c(Cl)c1)c1cnc(N2CCN(C3CCN(Cc4ccc(Br)cc4F)CC3)CC2)c(Cl)c1 [compound 33]
> 100	O=C(NCc1ccc(F)c(F)c1)c1cnc(N2CCN(C3CCN(C(=O)c4ccc(Cl)c(Cl)c4)CC3)CC2)c(Cl)c1 [compound 351]
25 to 100	COc1ccc(CN2CCC(N3CCN(c4ncc(C(=O)NCc5ccc(Cl)cc5F)cc4Cl)CC3)CC2)cc1 [compound 111]
< 25	CC[C@H]1CN(c2ncc(CNC(N)=O)cc2Cl)CCN1C1CCN(Cc2ccc(Cl)cc2F)CC1 [compound 379]
> 100	N#Cc1ccc(CN2CCC(N3CCN(c4ncc(C(=O)NCc5ccc(Cl)cc5Cl)cc4Cl)CC3)CC2)cc1 [compound 69]

IC50 [nM]	Structure (SMILES)
> 100	O=C(NCc1ccc(C(F)(F)F)cc1)c1cnc(N2CCN(C3CCN(Cc4ccc(Br)cc4)CC3)CC2)c(Cl)c1 [compound 31]
25 to 100	COc1ccc(CN2CCC(N3CCN(c4ncc(C(=O)NCCOc5ccccc5)cc4Br)CC3)CC2)cc1 [compound 304]
25 to 100	CC1(N2CCN(c3ncc(C(=O)NCC4CCCCC4)cc3Cl)CC2)CCN(Cc2ccc(Cl)cc2)CC1 [compound 202]
> 100	CNC(=O)c1cnc(N2CCN(C3CCN(/C(=N\C#N)c4ccc(Cl)cc4)CC3)[C@@H](C)C2)c(Cl)c1 [compound 359]
< 25	CC[C@H]1CN(c2ncc(CNC(=O)NN)cc2Cl)CCN1C1CCN(Cc2ccc(Cl)cc2F)CC1 [compound 401]
> 100	O=C(NCc1ccc(Br)cc1)c1cnc(N2CCN(C3CCN(Cc4ccc(Cl)cc4Cl)CC3)CC2)c(Cl)c1 [compound 11]
< 25	CNC(=O)c1cnc(N2CCN(C3CCN(Cc4ccc(Cl)cc4)CC3)[C@@H](C)C2)c(Cl)c1 [compound 241]
> 100	O=C(NC1CCc2ccccc21)c1cnc(N2CCN(C3CCN(Cc4ccc(Cl)cc4)CC3)CC2)c(Br)c1 (stereo not shown) [compound 3]
25 to 100	N#Cc1ccc(C(=O)N2CCC(N3CCN(c4ncc(C(=O)NCc5ccc(Cl)c(Cl)c5)cc4Br)CC3)CC2)cc1 [compound 285]
25 to 100	O=C(NCc1ccc(F)cc1)c1cnc(N2CCN(C3CCN(Cc4ccc(Cl)c(F)c4)CC3)CC2)c(Cl)c1 [compound 139]
25 to 100	CC[C@H]1CN(c2ncc(CN(C3CC3)S(C)(=O)=O)cc2Cl)CCN1C1CCN(Cc2ccc(Cl)cc2F)CC1 [compound 414]
> 100	CNC(=O)c1cnc(N2CCN(C3CCN(C(=O)c4cc5cc(Cl)ccc5[nH]4)CC3)[C@@H](C)C2)c(Cl)c1 [compound 361]
> 100	CC[C@H]1CN(c2ncc(C(N)=O)cc2Cl)CCN1C1CCN(C(=O)c2ccc(Cl)cc2)CC1 [compound 332]
> 100	O=C(NCc1ccc(F)cc1F)c1cnc(N2CCN(C3CCN(Cc4ccc(F)cc4F)CC3)CC2)c(Cl)c1 [compound 41]
< 25	CC[C@H]1CN(c2ncc(COC(=O)NC(C)C)cc2Cl)CCN1C1CCN(Cc2ccc(Cl)cc2F)CC1 [compound 405]
> 100	O=C(NC1CCCC1)c1cnc(N2CCN(C3CCN(Cc4ccc(Cl)c(F)c4)CC3)CC2)c(Cl)c1 [compound 22]
< 25	C[C@@H]1CN(c2ncc(C(=O)NCC3CCCCC3)cc2Cl)CCN1C1CCN(C(=O)c2ccc(C#N)cc2)CC1 [compound 250]
25 to 100	O=C(NCc1ccc(Br)cc1)c1cnc(N2CCN(C3CCN(Cc4ccc([N+](=O)[O-])cc4)CC3)CC2)c(Cl)c1 [compound 131]
< 25	CC[C@H]1CN(c2ncc(CNC)cc2Cl)CCN1C1CCN(Cc2ccc(Cl)cc2F)CC1 [compound 393]
> 100	CNC(=O)c1cnc(N2CCN(C3CCN(Cc4ccc(F)cc4S(=O)(=O)N(C)c4ccc(Cl)cc4)CC3)[C@@H](C)C2)c(Cl)c1 [compound 354]
< 25	CC[C@H]1CN(c2ncc(CNC(=O)NCC(F)(F)F)cc2Cl)CCN1C1CCN(Cc2ccc(Cl)cc2F)CC1 [compound 369]
25 to 100	CC[C@H]1CN(c2ncc(C(=O)NC(C)C)cc2Cl)CCN1C1CCN(C(=O)c2ccc(C#N)cc2)CC1 [compound 287]

IC50 [nM]	Structure (SMILES)
25 to 100	CNC(=O)c1cnc(N2CCN(C3CCN([C@H]4CCc5cc(Cl)ccc54)CC3)[C@@H](C)C2)c(Cl)c1 [compound 278]
< 25	CC[C@H]1CN(c2ncc(CN/C(=N\C#N)NC)cc2Cl)CCN1C1CCN(Cc2ccc(Cl)cc2F)CC1 [compound 403]
> 100	CC[C@H]1CN(c2ncc(C(=O)OC)c(N)c2Cl)CCN1C1CCN(Cc2ccc(Cl)cc2F)CC1 [compound 441]
25 to 100	O=C(NCc1ccc(Cl)cc1Cl)c1cnc(N2CCN(C3CCN(Cc4ccc(F)cc4)CC3)CC2)c(Cl)c1 [compound 119]
> 100	CC[C@H]1CN(c2ncc(C(=O)NC)cc2Cl)CCN1C1CCN(C2c3ccc(Cl)cc3CCc3cccnc32)CC1 (stereo partly shown) [compound 356]
> 100	CC[C@H]1CN(c2ccc(CN)cn2)CCN1C1CCN(Cc2ccc(Cl)cc2)CC1 [compound 452]
25 to 100	N#Cc1ccc(CN2CCC(N3CCN(c4ncc(C(=O)NCc5ccc(F)c(Cl)c5)cc4Cl)CC3)CC2)cc1 [compound 107]
< 25	CC[C@H]1CN(c2ncc(C(N)=O)cc2Cl)CCN1C1CCN(Cc2ccc(Cl)cc2F)CC1 [compound 244]
< 25	C[C@H]1CN(c2ncc(C(=O)Nc3ccon3)cc2Cl)CCN1C1CCN(Cc2ccc(Cl)cc2)CC1 [compound 233]
< 25	CCNC(=O)c1cnc(N2CCN(C3CCN(C(=O)c4ccc(Cl)cc4F)CC3)[C@@H](CC)C2)c(Cl)c1 [compound 260]
> 100	CCNC(=O)c1cnc(N2CCN(C3(CC)CCN(Cc4ccc(Cl)cc4)CC3)CC2)c(Cl)c1 [compound 208]
> 100	O=C(NCc1ccc(Cl)cc1)c1cnc(N2CCN(C3CCN(Cc4ccc(F)cc4F)CC3)CC2)c(Cl)c1 [compound 87]
> 100	COc1ccc(CN2CCC(N3CCN(c4ncc(C(=O)NCc5cc(Cl)cc(Cl)c5)cc4Cl)CC3)CC2)cc1 [compound 44]
25 to 100	CC[C@H]1CN(c2ncc(C(=O)NC)cc2Cl)CCN1C1CCN(Cc2ccccc2F)CC1 [compound 295]
< 25	CC[C@H]1CN(c2ncc(CN/C(=N\C#N)NCC(F)(F)F)cc2Cl)CCN1C1CCN(Cc2ccc(Cl)cc2F)CC1 [compound 381]
> 100	COc1ccc(CN2CCC(N3CCN(c4ncc(C(=O)NCc5ccc(C(F)(F)F)cc5)cc4Cl)CC3)CC2)cc1 [compound 42]
25 to 100	CC1CC(N2CCN(c3ncc(C(=O)NCc4ccc(Cl)c(Cl)c4)cc3Cl)CC2)CCN1Cc1ccc(C#N)cc1 (stereo not shown) [compound 143]
25 to 100	O=C(NCc1cccc(Cl)c1)c1cnc(N2CCN(C3CCN(Cc4ccc([N+](=O)[O-])cc4)CC3)CC2)c(Cl)c1 [compound 148]
25 to 100	CC(C)C[C@H]1CN(c2ncc(C(=O)NCC3CCCCC3)cc2Cl)CCN1C1CCN(Cc2ccc(Cl)cc2)CC1 [compound 197]
< 25	CCNC(=O)c1cnc(N2CCN(C3CCN(Cc4ccc(Cl)cc4)CC3C)[C@@H](C)C2)c(Cl)c1 (stereo partly shown) [compound 209]
